Details: Liquid, Closed cell (Static) method

FCC(F)(F)F [1,1,1,2-tetrafluoroethane]
Details | vapor or sublimation pressure [kPa]
263.15 K | 202.6
268.15 K | 245.5
273.15 K | 294.12
283.15 K | 416.6

CCF [fluoroethane]
Details | vapor or sublimation pressure [kPa]
253.15 K | 216.2
258.15 K | 261.4
263.15 K | 311.9
265.65 K | 342.3
268.15 K | 372.2
270.65 K | 405.3
273.15 K | 438.1
275.15 K | 468.9
278.15 K | 517.1
281.15 K | 567.1
283.15 K | 602.9
285.65 K | 650.2
288.15 K | 699
290.65 K | 752.4
293.15 K | 808.2
295.65 K | 866
298.15 K | 924.2
300.65 K | 990.3
303.15 K | 1051.4
305.65 K | 1121.5
308.15 K | 1192.8
310.65 K | 1269.5
313.15 K | 1348.6
315.65 K | 1428.6
318.5 K | 1516.5
320.65 K | 1607.1
323.15 K | 1703.9
